# Reference: publication PMC7449411, “In silico discovery and biological validation of ligands of FAD synthase, a promising new antimicrobial target” (PLoS Computational Biology, 2020)
# Legend:
# CaFADS = biological target: T1, CaFADS (Corynebacterium ammoniagenes, UniProt Q59263); assay: Differential scanning fluorescence (thermal denaturation) binding to CaFADS
# T1 construct: made in house; host or cells: Escherichia coli BL21(DE3)
# Outline: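 Thermal shift with 2 μM CaFADS, compound at 5-250 μM (2% DMSO) and 5x SYPRO Orange in 20 mM PIPES pH 7.0, 10 mM MgCl2, heated 25-100 °C at 1 °C/min. Kd estimated by fitting ligand-induced shift in midpoint denaturation temperature (ΔTm) to a stabilization equation.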
# FMNAT activity of CaFADS = biological target: T2, FMNAT activity of CaFADS (Corynebacterium ammoniagenes, UniProt Q59263); assay: Inhibition of the FMNAT activity of CaFADS; assay type: biochemical; conditions: at the maximal compound concentration assayed (250 μM)
# T2 construct: made in house; host or cells: Escherichia coli BL21(DE3)
# Description: To determine the compound’s ability to inhibit the RFK and/or the FMNAT activities of CaFADS, both enzymatic activities were quantitatively measured in the absence and presence of the compounds following previously described protocols. Reaction mixtures contained 50 μM ATP, 5 μM RF in 20 mM PIPES, pH 7.0, 0.8 mM MgCl2, when assaying the RFK activity, and 50 μM ATP, 10 μM FMN in 20 mM PIPES, pH 7.0, 10 mM MgCl2 when measuring the FMNAT reaction. Each compound was tested at 250 μM (0.5% residual final concentration of DMSO) for each of the two enzymatic reactions. The samples were pre-incubated at 25 °C, the reaction was then initiated by the addition of ∼ 40 nM CaFADS (final concentration) and allowed for 1 min. Finally, the reaction was stopped by boiling the samples for 5 min and the denatured protein was eliminated through centrifugation. The transformation of RF into FMN and FAD (RFK activity) and of FMN into FAD (FMNAT activity) was evaluated through flavins separation by HPLC (Waters), as previously described. All the experiments were performed in triplicate. To evaluate the potency of compounds as inhibitors, we took advantage of the decrease in quantum yield of fluorescence when FMN is transformed into FAD, which allows to follow such transformation in a continuous system. Measurements were carried out using a microplate reader Synergy HT multimode plate reader (Biotek) with BRAND 96-well plates pure Grade. Reaction mixtures contained 5 μM RF or FMN, and 50 μM ATP in 20 mM PIPES, pH 7.0, 10 mM MgCl2, and the inhibitor compound in a 5-250 μM concentration range (2% residual final concentration of DMSO). Reactions were initiated through addition of 0.4 μM CaFADS, being the final reaction volume 100 μL. Flavin fluorescence (excitation at 440 nm and emission at 530 nm) was registered at 25 °C, every 50 s during 15 min. The fluorescence change per time unit (ΔF/Δt) was calculated as the slope of the resulting fluorescence decays recorded between 0 and 6 min (linear decay of the fluorescence). Controls which contained the reaction mixture without the enzyme and without any potential CaFADS inhibitory compound were included in the assay and referred as the 0% and 100% of enzymatic activity, respectively. IC50 was calculated as the concentration of compound required for a 50% inhibition of the enzymatic activity.
# C. ammoniagenes = assay: MIC, resazurin broth microdilution; assay type: cell-based, Corynebacterium ammoniagenes; conditions: for MIC: C. ammoniagenes
# C. glutamicum = assay: MIC, resazurin broth microdilution; assay type: cell-based, Corynebacterium glutamicum; conditions: media BHI
# C. diphteriae = assay: MIC, resazurin broth microdilution; assay type: cell-based, Corynebacterium diphteriae
# M. tuberculosis = assay: MIC, resazurin broth microdilution; assay type: cell-based, Mycobacterium tuberculosis
# M. smegmatis = assay: MIC, resazurin broth microdilution; assay type: cell-based, Mycobacterium smegmatis; conditions: media 7H9G-ADC
# S. pneumoniae = assay: MIC, resazurin broth microdilution; assay type: cell-based, Streptococcus pneumoniae
# E. coli = assay: MIC, resazurin broth microdilution; assay type: cell-based, Escherichia coli; conditions: media LB
# L. monocytogenes = assay: MIC, resazurin broth microdilution; assay type: cell-based, Listeria monocytogenes; conditions: media BHI
# P. aeruginosa = assay: MIC, resazurin broth microdilution; assay type: cell-based, Pseudomonas aeruginosa; conditions: media MH
# S. thyphimurium = assay: MIC, resazurin broth microdilution; assay type: cell-based, Salmonella thyphimurium; conditions: media MH
# Bacillus spp. = assay: MIC, resazurin broth microdilution; assay type: cell-based, Bacillus sp.; conditions: media MH
# Mycobacteriumspecies = assay: MIC against Mycobacterium species (S5 Fig legend); assay type: cell-based
# A549 = assay: MTT cytotoxicity assay; assay type: cell-based; conditions: 24 h, 4-512 μM range, read-out: IC50 (concentration causing 50% inhibition of cellular viability)
# Description: (§1) The (4,5-dimethylthiazol-2-yl)-2,5-diphenyl tetrazolium bromide (MTT) assay was used to determine the effect of the compounds in cell growth and viability of HeLa (ATCC CCL-2) and A549 (ATCC CCL-185) eukaryotic cell lines. Both cell lines were routinely cultured in high-glucose DMEM (Lonza) supplemented with 10% fetal bovine serum, 4 mM glutamine GlutaMAX™ (Gibco) and 1x non-essential amino acids (Gibco), under 5% CO2 at 37 °C in a humidified atmosphere. For the MTT assay, cells were initially seeded in 96-well flat-bottom plates at a density of 10^4 cells per well and cultured for 24 h. Cultures were routinely tested for mycoplasma presence. The compounds were dissolved in fresh culture medium, added in a 4-512 μM concentration range (1% DMSO final concentration), and incubated with the cells for 24 h. Finally, formazan crystals were dissolved with pure DMSO and MTT absorbance was measured at 570 and 650 nm. Untreated cells were included as control of 100% viability. Assays were done in quadruplicate.
# HeLa = assay: MTT cytotoxicity assay; assay type: cell-based; conditions: 24 h, 4-512 μM range, read-out: IC50 (concentration causing 50% inhibition of cellular viability)
# Description: as §1
# T1 sequence (Q59263 whole entry): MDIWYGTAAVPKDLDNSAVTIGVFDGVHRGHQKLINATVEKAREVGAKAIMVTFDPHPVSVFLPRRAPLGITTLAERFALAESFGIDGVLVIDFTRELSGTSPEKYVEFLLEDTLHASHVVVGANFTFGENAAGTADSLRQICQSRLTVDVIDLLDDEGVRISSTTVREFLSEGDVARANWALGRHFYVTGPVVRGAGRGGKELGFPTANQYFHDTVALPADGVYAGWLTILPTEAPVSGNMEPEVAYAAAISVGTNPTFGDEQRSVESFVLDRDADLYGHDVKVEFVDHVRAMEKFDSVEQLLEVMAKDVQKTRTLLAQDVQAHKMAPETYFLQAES
# T2 sequence (Q59263 whole entry): as above
smiles,measurement,setting,value
"O=C(Nc1ccccc1C(=O)O)OCC1c2ccccc2-c2ccccc21 [Compound C5, 2-{[(9H-9-fluorenylmethoxy)carbonyl]amino}benzoic acid]",Tm shift of CaFADS thermal denaturation,"CaFADS; 2 μM CaFADS, compound up to 250 μM",shifted it to lower values
same,Kd,"CaFADS; from differential scanning fluorescence data fitted to Eq 2, 20 mM PIPES pH 7.0, 10 mM MgCl2, 2% DMSO, n = 3, mean ± SD",1700 ± 700 nM
same,inhibition of the FMNAT activity of CaFADS,FMNAT activity of CaFADS,over 90%
same,MIC,C. ammoniagenes; media BHI,> 64 µM
same,MIC,C. ammoniagenes; media MH,32 µM
same,MIC,C. ammoniagenes; media MH+DFO,32 µM
same,MIC,C. ammoniagenes; media MH+DIP,32 µM
same,MIC,C. ammoniagenes; media MH+DIP+DFO,32 µM
same,MIC (μM) C. ammoniagenes,C. ammoniagenes; Table 3,32 µM
same,MIC,C. glutamicum,32 µM
same,MIC,C. diphteriae; media BHI,64 µM
same,MIC,C. diphteriae; media MH,32 µM
same,MIC,"M. tuberculosis; M. tuberculosis, media 7H9G-ADC",128 µM
same,MIC (μM) M. tuberculosis,M. tuberculosis; Table 3,128 µM
same,MIC,M. smegmatis,> 256 µM
same,MIC,S. pneumoniae; media BHI,128 µM
same,MIC,S. pneumoniae; media MH,256 µM
same,MIC,E. coli,> 64 µM
same,MIC,L. monocytogenes,> 64 µM
same,MIC,P. aeruginosa,> 256 µM
same,MIC,S. thyphimurium,> 256 µM
same,MIC,Bacillus spp.,32 µM
same,MIC Mycobacterium species,Mycobacteriumspecies,lower than 256 μM
same,IC50,A549,> 512 µM
same,IC50,HeLa,> 512 µM
